{
  "source": "patent US20220089733A1",
  "about": "“NOVEL APPROACH FOR TREATMENT OF CANCER USING IMMUNOMODULATION” (BioXcel Therapeutics, Inc., priority 2018, published 2022)",
  "key": {"melanoma": {"tested_on": "melanoma", "conditions": "melanoma patients; cited from earlier work"}, "CYP1A2 [1]": {"biological_target": "CYP1A2 (Homo sapiens, UniProt P05177)", "sequence (P05177 whole entry)": "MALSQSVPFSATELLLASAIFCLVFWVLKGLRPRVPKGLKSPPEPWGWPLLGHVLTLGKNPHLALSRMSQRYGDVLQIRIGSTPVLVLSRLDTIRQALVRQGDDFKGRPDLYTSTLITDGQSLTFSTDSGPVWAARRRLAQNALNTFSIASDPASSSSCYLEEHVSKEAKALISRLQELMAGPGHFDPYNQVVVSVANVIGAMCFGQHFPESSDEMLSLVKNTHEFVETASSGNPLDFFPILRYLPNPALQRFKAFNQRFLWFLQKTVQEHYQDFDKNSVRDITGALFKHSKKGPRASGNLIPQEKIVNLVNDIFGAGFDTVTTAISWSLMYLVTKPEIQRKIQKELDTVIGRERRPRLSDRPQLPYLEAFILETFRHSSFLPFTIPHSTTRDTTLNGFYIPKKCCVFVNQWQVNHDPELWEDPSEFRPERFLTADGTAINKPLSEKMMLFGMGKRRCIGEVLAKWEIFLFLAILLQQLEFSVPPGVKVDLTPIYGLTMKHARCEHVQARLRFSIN", "conditions": "human liver CYP isoenzymes; preclinical studies"}, "CYP2C19": {"biological_target": "CYP2C19 (Homo sapiens, UniProt P33261)", "sequence (P33261 whole entry)": "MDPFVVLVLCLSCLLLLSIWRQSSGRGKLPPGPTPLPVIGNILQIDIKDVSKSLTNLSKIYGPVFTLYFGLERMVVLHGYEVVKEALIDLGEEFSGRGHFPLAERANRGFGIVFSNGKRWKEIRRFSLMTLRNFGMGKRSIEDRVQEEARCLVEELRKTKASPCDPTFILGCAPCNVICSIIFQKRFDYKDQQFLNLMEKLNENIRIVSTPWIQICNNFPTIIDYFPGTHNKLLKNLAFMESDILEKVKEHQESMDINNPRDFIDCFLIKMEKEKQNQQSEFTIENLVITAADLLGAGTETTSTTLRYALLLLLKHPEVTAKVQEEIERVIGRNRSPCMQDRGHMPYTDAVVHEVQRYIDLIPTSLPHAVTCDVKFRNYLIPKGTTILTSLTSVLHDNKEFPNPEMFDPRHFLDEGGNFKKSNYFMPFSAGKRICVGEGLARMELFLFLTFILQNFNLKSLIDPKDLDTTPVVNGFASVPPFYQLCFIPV"}, "CYP3A4 [2]": {"tested_on": "CYP3A4"}, "CYP3A4 [3]": {"biological_target": "CYP3A4 (Homo sapiens, UniProt P08684)", "sequence (P08684 whole entry)": "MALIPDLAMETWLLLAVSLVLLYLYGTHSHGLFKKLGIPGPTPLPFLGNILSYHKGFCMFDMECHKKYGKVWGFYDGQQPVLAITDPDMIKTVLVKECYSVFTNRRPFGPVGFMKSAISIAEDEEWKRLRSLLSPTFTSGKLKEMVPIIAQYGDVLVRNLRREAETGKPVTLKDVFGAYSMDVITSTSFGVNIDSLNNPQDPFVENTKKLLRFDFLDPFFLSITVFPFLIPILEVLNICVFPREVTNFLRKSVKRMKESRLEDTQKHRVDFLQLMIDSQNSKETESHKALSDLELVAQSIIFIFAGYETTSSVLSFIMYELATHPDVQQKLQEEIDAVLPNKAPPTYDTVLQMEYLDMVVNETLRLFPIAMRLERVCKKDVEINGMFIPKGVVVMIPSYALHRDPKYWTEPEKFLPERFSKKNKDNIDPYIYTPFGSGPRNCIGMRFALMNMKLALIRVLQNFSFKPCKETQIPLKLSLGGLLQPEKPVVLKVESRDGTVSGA"}, "CYP2D6": {"biological_target": "CYP2D6 (Homo sapiens, UniProt P10635)", "sequence (P10635 whole entry)": "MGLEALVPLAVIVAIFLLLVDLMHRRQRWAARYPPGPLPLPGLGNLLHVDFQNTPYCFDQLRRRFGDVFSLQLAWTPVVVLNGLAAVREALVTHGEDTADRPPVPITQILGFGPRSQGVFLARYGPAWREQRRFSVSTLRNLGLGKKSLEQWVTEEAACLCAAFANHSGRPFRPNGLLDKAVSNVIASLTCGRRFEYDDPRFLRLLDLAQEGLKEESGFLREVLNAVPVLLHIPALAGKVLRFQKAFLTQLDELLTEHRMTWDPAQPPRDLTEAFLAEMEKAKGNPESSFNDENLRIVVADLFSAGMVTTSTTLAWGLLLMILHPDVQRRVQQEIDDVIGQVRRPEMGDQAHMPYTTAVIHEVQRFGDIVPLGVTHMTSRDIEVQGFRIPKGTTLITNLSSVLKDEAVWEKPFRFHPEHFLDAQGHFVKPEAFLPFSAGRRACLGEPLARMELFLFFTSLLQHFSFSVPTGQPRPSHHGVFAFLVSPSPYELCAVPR"}, "CYP1A2 [4]": {"tested_on": "CYP1A2"}, "CYP2C8": {"biological_target": "T1, CYP2C8 (Homo sapiens, UniProt P10632)", "T1 sequence (P10632 1-490)": "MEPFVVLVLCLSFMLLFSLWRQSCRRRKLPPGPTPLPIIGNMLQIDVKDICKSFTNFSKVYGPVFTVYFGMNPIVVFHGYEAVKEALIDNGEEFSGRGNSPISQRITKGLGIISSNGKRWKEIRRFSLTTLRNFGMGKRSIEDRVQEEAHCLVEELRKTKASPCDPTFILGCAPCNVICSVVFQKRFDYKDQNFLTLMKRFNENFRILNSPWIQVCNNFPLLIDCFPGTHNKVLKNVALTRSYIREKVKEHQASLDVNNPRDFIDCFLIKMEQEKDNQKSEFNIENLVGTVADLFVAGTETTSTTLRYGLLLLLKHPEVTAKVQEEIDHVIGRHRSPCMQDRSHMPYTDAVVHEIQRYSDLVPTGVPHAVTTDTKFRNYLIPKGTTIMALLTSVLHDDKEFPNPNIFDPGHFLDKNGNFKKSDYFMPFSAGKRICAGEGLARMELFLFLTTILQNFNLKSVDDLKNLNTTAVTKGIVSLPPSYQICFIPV"}, "CYP2C9": {"biological_target": "CYP2C9 (Homo sapiens, UniProt P11712)", "sequence (P11712 whole entry)": "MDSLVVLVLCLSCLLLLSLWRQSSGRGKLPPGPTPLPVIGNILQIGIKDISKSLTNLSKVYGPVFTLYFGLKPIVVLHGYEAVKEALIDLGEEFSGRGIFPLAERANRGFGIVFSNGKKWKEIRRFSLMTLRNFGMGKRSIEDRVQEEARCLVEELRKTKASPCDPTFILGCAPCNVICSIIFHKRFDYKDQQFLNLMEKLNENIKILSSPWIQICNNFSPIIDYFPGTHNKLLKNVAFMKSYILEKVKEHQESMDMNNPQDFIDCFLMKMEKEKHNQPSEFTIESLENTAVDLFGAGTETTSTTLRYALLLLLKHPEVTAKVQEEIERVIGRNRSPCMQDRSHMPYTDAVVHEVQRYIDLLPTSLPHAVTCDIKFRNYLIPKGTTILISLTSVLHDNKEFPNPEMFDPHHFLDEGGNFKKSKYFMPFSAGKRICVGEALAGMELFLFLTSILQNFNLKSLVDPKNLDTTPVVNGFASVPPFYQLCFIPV"}, "[5]": {"conditions": "in vivo; cited from earlier work"}},
  "data": [
    {"molecule": "Ipilimumab: CTLA-4 antagonist antibody, checkpoint inhibitor", "values": [
      {"measurement": "Response rate", "setting": "melanoma", "value": 11, "unit": "%"}
    ]},
    {"molecule": "Talabostat mesylate", "values": [
      {"measurement": "Potential to inhibit CYP1A2", "setting": "CYP1A2 [1]", "value": "low potential"},
      {"measurement": "Potential to inhibit CYP2C19", "setting": "CYP2C19", "value": "low potential"},
      {"measurement": "Induction of CYP3A4", "setting": "CYP3A4 [2]", "value": "did not induce"},
      {"measurement": "Potential to inhibit CYP3A4", "setting": "CYP3A4 [3]", "value": "low potential"},
      {"measurement": "Potential to inhibit CYP2D6", "setting": "CYP2D6", "value": "low potential"},
      {"measurement": "Induction of CYP1A2", "setting": "CYP1A2 [4]", "value": "did not induce"},
      {"measurement": "Potential to inhibit CYP2C8", "setting": "CYP2C8", "value": "low potential"},
      {"measurement": "Potential to inhibit CYP2C9", "setting": "CYP2C9", "value": "low potential"},
      {"measurement": "Most common / most frequently observed adverse events", "setting": "[5]", "value": "edema/peripheral swelling, hypotension, dizziness, and hypovolemia"}
    ]},
    {"molecule": "CC(C)[C@H](N)C(=O)N1CCC[C@H]1B(O)O", "note": "[Talabostat, [(2R)-1-[(2S)-2-amino-3-methylbutanoyl]pyrrolidin-2-yl]boronic acid]", "values": [
      {"measurement": "Most common / most frequently observed adverse events", "setting": "[5]", "value": "edema/peripheral swelling, hypotension, hypovolemia, and dizziness"}
    ]},
    {"molecule": "Nivolumab: PD-1 antagonist antibody, checkpoint inhibitor", "values": [
      {"measurement": "Response rate", "setting": "melanoma", "value": 32, "unit": "%"}
    ]}
  ]
}
